# According to patent US10858339B2, “Aryl cyclopropyl-amino-isoquinolinyl amide compounds” (priority 2017, dated 2020):
# Assays:
# [1] = molecular target: JAK2 (Homo sapiens, UniProt O60674); experiment: JAK kinase assay, JAK2 enzyme; format: biochemical; conditions: for Ki: Table 15, in brackets in the activity cell, read-out: JAK2 activity;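 on all read-outs here: JAK2 kinase reaction run 75 min at room temperature, leftover ATP read by Kinase-Glo luminescence, 11-point dilution series in 2.5% DMSO, percent of inhibitor-free DMSO control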
# Chain of JAK2 (O60674 whole entry, species assumed, canonical isoform): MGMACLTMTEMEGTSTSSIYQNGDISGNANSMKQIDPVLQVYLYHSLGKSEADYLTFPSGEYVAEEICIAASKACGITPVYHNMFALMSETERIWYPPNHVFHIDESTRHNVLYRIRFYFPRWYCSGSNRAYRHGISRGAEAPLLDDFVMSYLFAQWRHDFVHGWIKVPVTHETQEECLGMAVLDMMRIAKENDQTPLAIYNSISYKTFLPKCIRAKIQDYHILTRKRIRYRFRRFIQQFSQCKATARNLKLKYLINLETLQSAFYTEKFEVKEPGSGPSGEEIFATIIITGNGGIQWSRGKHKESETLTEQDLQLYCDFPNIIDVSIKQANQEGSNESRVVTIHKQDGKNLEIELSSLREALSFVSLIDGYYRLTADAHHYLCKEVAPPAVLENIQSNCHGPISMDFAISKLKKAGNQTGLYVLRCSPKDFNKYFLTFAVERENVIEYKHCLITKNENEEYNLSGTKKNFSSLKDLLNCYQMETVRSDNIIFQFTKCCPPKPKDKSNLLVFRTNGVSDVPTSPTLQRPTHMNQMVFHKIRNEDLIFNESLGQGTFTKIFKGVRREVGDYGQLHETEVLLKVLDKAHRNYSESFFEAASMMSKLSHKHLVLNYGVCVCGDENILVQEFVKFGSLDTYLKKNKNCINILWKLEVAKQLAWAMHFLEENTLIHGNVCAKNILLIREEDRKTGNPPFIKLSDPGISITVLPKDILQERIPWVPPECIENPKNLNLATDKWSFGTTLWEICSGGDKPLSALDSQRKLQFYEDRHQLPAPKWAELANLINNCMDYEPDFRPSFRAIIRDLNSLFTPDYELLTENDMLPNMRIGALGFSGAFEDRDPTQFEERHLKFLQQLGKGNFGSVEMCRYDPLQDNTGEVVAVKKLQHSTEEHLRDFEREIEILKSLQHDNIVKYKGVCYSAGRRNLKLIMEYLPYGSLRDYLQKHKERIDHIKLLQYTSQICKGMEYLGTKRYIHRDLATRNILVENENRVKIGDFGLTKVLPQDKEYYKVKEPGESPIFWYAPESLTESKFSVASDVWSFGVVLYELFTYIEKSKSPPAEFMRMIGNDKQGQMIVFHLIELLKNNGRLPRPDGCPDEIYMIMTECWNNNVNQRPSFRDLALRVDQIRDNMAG
# [2] = molecular target: Rho Kinase; experiment: ROCK kinase inhibition assay (Rho Kinase Activity, isoform not given); format: biochemical; conditions: Table 15, mostly given as ranges
# Protocol: All compounds were initially prepared as 10 mM stocks in anhydrous dimethylsulfoxide (DMSO). A 20 μl aliquot of the 10 mM solutions was transferred to individual wells in column 1 of a 96-well polypropylene microtiter plate (Corning #3363) and diluted with DMSO to give a final compound concentration of 4 mM. Test compounds were then serially diluted 1:5 in DMSO for an 11-point concentration response and further diluted in the assay buffer bringing all compound concentrations to a final range of 100 μM to […] in 2.5% DMSO. The assay was performed in white 96-well, flat-bottom, half-area, non-binding assay plate (Corning #3642) in assay buffer consisting of 20 mM HEPES (pH 7.5), 10 mM MgCl2*6H2O, 100 μM sodium orthovanadate, 0.05% CHAPS and 0.1% bovine serum albumin. A 10 μL aliquot of compound from each well of the intermediate dilution plate and 20 μL of a 2× substrate/enzyme solution containing acceptor substrate (800 nM RSK2 peptide […] (SEQ ID NO: 1)), ROCK2 enzyme (10 nM), or ROCK1 enzyme, and 1,4-Dithiothreitol (DTT, 2 uM) were added to all wells. The reaction was initiated by the addition of 10 μL of 4× stock solution ATP (2 μM). Reactions were thoroughly mixed manually, covered and allowed to incubate at room temperature for 75 min. Protein kinase activity was quantitated using Promega's KINASE-GLO™ luminescent Kinase Assay Kit according to the manufacturer's directions. ATP concentrations remaining in Test wells following the termination of the enzymatic reaction were compared against control wells containing equivalent amounts of DMSO containing no inhibitor (CTRL). […] Percent of Control (POC) values were determined for each concentration of compound tested according to the equation: POC=((Test well value−BKG)/(CTRL−BKG))*100
# IC50 values were converted to K; […]
Structure (SMILES),Ki [1] [nM],Ki [2] [nM],JAK2 activity [1]
"O=C(NCc1cccnc1)c1ccc([C@@H]2C[C@H]2C(=O)Nc2ccc3cnccc3c2)cc1 (relative stereo) [Example E8, trans-4-(2-(isoquinolin-6-ylcarbamoyl)cyclopropyl)-N-(pyridin-3-ylmethyl)benzamide]",200,1 to 10,–
"O=C(Nc1ccc2cnccc2c1)[C@@H]1C[C@H]1c1ccc(I)cc1 (relative stereo) [Example E251, rel-(1R,2R)-2-(4-iodophenyl)-N-(isoquinolin-6-yl)cyclopropane-1-carboxamide]",500 to 800,150 to 400,–
CC(C)(C)OC(=O)N1CCCC1CNC(=O)c1ccc(C2CC2C(=O)Nc2ccc3cnccc3c2)cc1 (stereo not shown) [Example 19.1],1500 to 3500,30 to 60,–
O=C(NCc1ccccn1)c1ccc(C2CC2C(=O)Nc2ccc3cnccc3c2)cc1 (stereo not shown) [Example E9],65 to 100,3 to 5,–
O=C(Nc1ccncc1)c1ccc(C2CC2C(=O)Nc2ccc3cnccc3c2)cc1 (stereo not shown) [Example E12],400,1 to 4,–
O=C(NCC1CCCN1)c1ccc(C2CC2C(=O)Nc2ccc3cnccc3c2)cc1 (stereo not shown) [Example E19.2],300 to 350,6 to 12,–
O=C(NCC1CCNC1)c1ccc(C2CC2C(=O)Nc2ccc3cnccc3c2)cc1 (stereo not shown) [Example E20.2],27 to 150,4 to 6,–
O=C(NCc1ccccn1)c1ccc(C2CC2C(=O)Nc2ccc3c(O)nccc3c2)cc1 (stereo not shown) [Example E31],375 to 570,5 to 7,–
O=C(NCc1cccnc1)c1ccc(C2CC2C(=O)Nc2cc3ccncc3cc2Br)cc1 (stereo not shown) [Example E32],400 to 1300,2.5 to 4.5,–
Cc1cncc2ccc(NC(=O)C3CC3c3ccc(C(=O)NCc4cccnc4)cc3)cc12 (stereo not shown) [Example E34],30 to 45,7 to 14,–
O=C(NCc1cccnc1)c1ccc(C2CC2C(=O)Nc2ccc3cnccc3c2F)cc1 (stereo not shown) [Example E35],300 to 950,0.5 to 8,–
CN(C)CCNC(=O)c1ccc(C2CC2C(=O)Nc2ccc3cnccc3c2)cc1 (stereo not shown) [Example E37],800,4.3 to 9,–
"O=C(NCc1ccccn1)c1ccc([C@@H]2C[C@H]2C(=O)Nc2ccc3cnccc3c2)cc1 [Example E54, 4-((1R,2R)-2-(isoquinolin-6-ylcarbamoyl)cyclopropyl)-N-(pyridin-2-ylmethyl)benzamide]",15 to 90,1 to 2,–
O=C(NCc1cccnc1)c1ccc([C@@H]2C[C@H]2C(=O)Nc2ccc3cnccc3c2F)cc1 [Example E56.1],40 to 75,0.1 to 0.5,–
O=C(NCc1cccnc1)c1ccc([C@@H]2C[C@H]2C(=O)Nc2ccc3cnccc3c2)cc1 [Example E56],40 to 120,0.5 to 3,–
O=C(NC[C@@H]1CCCNC1)c1ccc([C@@H]2C[C@H]2C(=O)Nc2ccc3cnccc3c2)cc1 [Example E57.2],7,0.1 to 1,–
O=C(OCc1ccccc1)c1ccc(C2CC2C(=O)Nc2ccc3c(O)nccc3c2)cc1 (stereo not shown) [Example E100.1],–,25,inactive
O=C(OCc1ccccc1)c1ccc(C2CC2C(=O)Nc2cc3ccncc3cc2Cl)cc1 (stereo not shown) [Example E104.1],–,15 to 75,inactive
"O=C(OCc1ccccc1)c1ccc([C@@H]2C[C@H]2C(=O)Nc2ccc3cnccc3c2)cc1 [Example E115, benzyl 4-((1R,2R)-2-(isoquinolin-6-ylcarbamoyl)cyclopropyl)benzoate]",3000 to 5000,40 to 75,–
"O=C(O)c1ccc([C@@H]2C[C@H]2C(=O)Nc2ccc3cnccc3c2)cc1 [Example E116, 4-((1R,2R)-2-(isoquinolin-6-ylcarbamoyl)cyclopropyl)benzoic acid]",400 to 700,100 to 400,–
"C[C@@H]1OC(c2ccc(C3CC3C(=O)Nc3ccc4cnccc4c3)cc2)O[C@@H]1C (stereo partly drawn) [Example E158, trans-2-(4-((4S,5S)-4,5-dimethyl-1,3-dioxolan-2-yl)phenyl)-N-(isoquinolin-6-yl)cyclopropane-1-carboxamide]",1000,165 to 215,–

# More lines, now with the values ahead:
Ki [1] [nM],Ki [2] [nM],JAK2 activity [1],Structure (SMILES)
270,20 to 50,–,"O=Cc1ccc([C@@H]2C[C@H]2C(=O)Nc2ccc3cnccc3c2)cc1 (racemic) [Example E159, trans-2-(4-formylphenyl)-N-(isoquinolin-6-yl)cyclopropane-1-carboxamide]"
1600 to 5000,20 to 130,–,"O=C(OCc1ccccc1)c1ccc([C@@H]2C[C@H]2C(=O)Nc2ccc3cnccc3c2)cc1 (relative stereo) [Example E96, trans-benzyl 4-(2-(isoquinolin-6-ylcarbamoyl)cyclopropyl)benzoate]"
3000,125 to 185,–,"CC(C)(C)OC(=O)c1ccc([C@@H]2C[C@H]2C(=O)Nc2ccc3cnccc3c2)c(F)c1 (relative stereo) [Example E191, trans-tert-butyl 3-fluoro-4-(2-(isoquinolin-6-ylcarbamoyl)cyclopropyl)benzoate]"
110,6 to 8,–,"COc1ccc(CNC(=O)c2ccc([C@@H]3C[C@H]3C(=O)Nc3ccc4cnccc4c3)c(F)c2)cc1 (relative stereo) [Example E193, trans-3-fluoro-4-(2-(isoquinolin-6-ylcarbamoyl)cyclopropyl)-N-(4-methoxybenzyl)benzamide]"
2500 to 9000,5 to 75,–,O=C(NCc1ccc(C(F)(F)F)cc1)c1ccc(C2CC2C(=O)Nc2ccc3cnccc3c2)cc1 (stereo not shown) [Example E16]
1000 to 1200,0.8 to 8,–,O=C(Nc1ccc2cnccc2c1)c1ccc(C2CC2C(=O)Nc2ccc3cnccc3c2)cc1 (stereo not shown) [Example E18]
700 to 2000,0.5 to 2,–,CC(C)(C)OC(=O)N1CCC(CNC(=O)c2ccc(C3CC3C(=O)Nc3ccc4cnccc4c3)cc2)C1 (stereo not shown) [Example E20.1]
1000 to 6000,0.5 to 1,–,CC(C)(C)OC(=O)N1CCC(CNC(=O)c2ccc(C3CC3C(=O)Nc3ccc4cnccc4c3)cc2)CC1 (stereo not shown) [Example E29.1]
75 to 110,5 to 8,–,O=C(NCc1cccnc1)c1ccc(C2CC2C(=O)Nc2ccc3cncc(F)c3c2)cc1 (stereo not shown) [Example E33]
136,7 to 9.5,–,O=C(NCCO)c1ccc(C2CC2C(=O)Nc2ccc3cnccc3c2)cc1 (stereo not shown) [Example E38]
400,5 to 7,–,O=C(NCCN1CCCCC1)c1ccc(C2CC2C(=O)Nc2ccc3cnccc3c2)cc1 (stereo not shown) [Example E39]
–,12000 to 52000,inactive,O=C(NCc1ccccn1)c1ccc([C@H]2C[C@@H]2C(=O)Nc2ccc3cnccc3c2)cc1 [Example E55]
45 to 65,0.15 to 1,–,CC(C)(C)OC(=O)N1CCC[C@@H](CNC(=O)c2ccc([C@@H]3C[C@H]3C(=O)Nc3ccc4cnccc4c3)cc2)C1 [Example E57.1]
1300 to 2700,190 to 250,–,O=C(Nc1ccccc1Cl)OCc1ccc(C2CC2C(=O)Nc2ccc3cnccc3c2)cc1 (stereo not shown) [Example E143]
200,0.7 to 1,–,O=C(NCc1cccnc1)c1cccc(C2CC2C(=O)Nc2ccc3cnccc3c2)c1 (stereo not shown) [Example E173]
5200,105 to 155,–,CC(C)(C)OC(=O)c1ccc(C2CC2C(=O)Nc2ccc3cnccc3c2)cc1 (stereo not shown) [Example E191.1]
15,3.5 to 4,–,O=C(NCc1ccccn1)c1ccc(C2CC2C(=O)Nc2ccc3cnccc3c2)c(F)c1 (stereo not shown) [Example E194]
